In patent publication US20190375766A1, “PROCESS FOR PREPARING HALOGENATED BICYCLIC SYSTEMS” (Bayer CropScience Aktiengesellschaft, priority 2016, published 2019) one finds chromatographic logP data, which are given here for 7 molecules.

The nature of this series: log P by HPLC-MS. Type of series: physicochemical.
Usually chromatographic logP stands for a lipophilicity value derived from retention on a column. Low values mean lower lipophilicity, high ones higher lipophilicity. In turn, `Cn1c(I)nc2cc(C(F)(F)F)ncc21` [Example 2, 2-iodo-3-methyl-6-(trifluoromethyl)-3H-imidazo[4,5-c]pyridine] showed a chromatographic logP of 1.77.
The same measure for `Cn1c(Br)nc2cc(C(F)(F)F)ncc21` [Example 3, 2-bromo-3-methyl-6-(trifluoromethyl)-3H-imidazo[4,5-c]pyridine]: 1.71.
The same measure for `Cn1cnc2cc(C(F)(F)F)cnc21` [Example 6, 3-methyl-6-(trifluoromethyl)-3H-imidazo[4,5-b]pyridine]: 1.44.
The same measure for `Cn1c(I)nc2cc(C(F)(F)F)cnc21` [Example 7, 2-iodo-3-methyl-6-(trifluoromethyl)-3H-imidazo[4,5-b]pyridine]: 2.29.
As for `Cn1c(I)nc2cc(C(F)(F)F)nnc21` [Example 5, 6-iodo-7-methyl-3-(trifluoromethyl)-7H-imidazo[4,5-c]pyridazine], the chromatographic logP is 1.66.
The result for `Cn1cnc2cc(C(F)(F)F)nnc21` [Example 4, 7-methyl-3-(trifluoromethyl)-7H-imidazo[4,5-c]pyridazine] reads 0.91; that for `Cn1cnc2cc(C(F)(F)F)ncc21` [Example 1, 3-methyl-6-(trifluoromethyl)-3H-imidazo[4,5-c]pyridine], 1.09.
